Experimental data from patent US6177592A, “Compounds” (priority 1997, dated 2001).

Experiments:
Molt-3 cells = assay: Growth of Molt-3 cells (MTT); assay type: cell-based, human; details: 24 hours
Experimental: (1) Jurkat cells (ATCC TIB-152) and Molt-3 cells (ATCC CRL-1552) which were human T cell leukemia cell stain were incubated in an RPMI 1640 medium (manufactured by Gibco BRL) containing 10% fetal calf serum (FCS, manufactured by Bio Whittaker) at 37° C. in the presence of 5% CO2 and the cells were then suspended in the above-mentioned medium containing 0, 5, 10 or 20 μM of GM to make the cell numbers 5×10^5 cells/ml followed by incubating for 24 hours. Cell growth was measured by an MTT method [Mosmann, et al.: J. Immunol. Methods, volume 65, pages 55-63 (1983)] wherein degree of cell growth was determined by the absorbance at 560 nm.

NO production = assay: Inhibition of LPS-induced NO production in RAW264.7; assay type: cell-based, mouse; details: RAW 264.7
Experimental: Inhibition activity of GM to NO production and to cell damage was measured as follows using mouse macrophage cell strain RAW264.7 cells (ATCC TIB 71) and LPS.
Dulbecco-modified Eagle's medium (manufactured by Life Technologies Oriental; 11054-020) containing 2 mM of L-glutamine (manufactured by Life Technologies Oriental; 25030-149) containing no Phenol Red containing 5 ml of 10% fetal calf serum (manufactured by Gibco) containing 1.5×10^6 cells of RAW 264.7 was incubated in a six-well tissue culture plate in the presence of 5% carbon dioxide gas at 37° C. for 12 hours, 50μl of 50μg/ml LPS (manufactured by Sigma; L-2012) was added, then each 50 μl of 250 )i M Mn or 100 μH GM was added to each well, incubation was further continued for additional 12 hours and, after that, NO2^- produced by oxidation of NO in the medium and amount of viable cell numbers were measured. Incidentally, a sect-Lon where no LPS was added and a section where no GM was added were prepared as controls. […]

Q: `N[C@@H](CCC(=O)N[C@@H](CSC1C=C(O)C(=O)C1)C(=O)NCC(=O)O)C(=O)O` (stereo partly shown) [GM, 2-hydroxy-4-glutathion-S-yl-2-cyclopenten-1-one] was tested. Which “effect in the growth of cells” value (Molt-3 cells; 5 μM or less) did it give?
A: no significant effect in the growth of cells

Q: What about the inhibition at 10 µM (Molt-3 cells; Homo sapiens, 10 μM, read-out: inhibition of cell growth) of the same compound?
A: ~50%

Q: And the inhibition at 20 µM (Molt-3 cells; Homo sapiens, 20 μM, read-out: inhibition of cell growth)?
A: ≥ 75%

Q: What about the “inhibition of NO production” value (NO production) of the same compound?
A: inhibited the NO production induced by LPS
